The source of these data is patent US20250101063A1, “POLYPEPTIDE COMPOUND AND USE THEREOF IN TREATMENT OF ENTERITIS” (Sichuan Gooddoctor Panxi Pharmaceutical Co., Ltd., priority 2022, published 2025).

Where no end group is shown, it is not given here. [ ]: non-standard residue; d: D form.

For the first test, the system named is zebrafish model of intestinal mucosal injury. The test can be described thus: Efficacy in relieving colitis: intestinal lumen area in TNBS-treated zebrafish. It is filed as in vivo. Set-up: key to Activity in relieving intestinal lumen dilatation: * p < 0.05; ** p < 0.01; *** p < 0.001; “−“ indicates absence of activity; “+” indicates some relief of intestinal lumen dilatation; “#” indicates that all the zebrafishes died in the experiment; “&” indicates that 13 zebrafishes died in the experiment. Particulars: 15.0 μg/mL (positive control), 2 days after TNBS, n = 10. Here is the method: Experimental animals: Wild-type AB strain zebrafishes, bred by natural pair mating. Zebrafishes aged 3 days post fertilization (3 dpf). Zebrafishes were kept in fish farming water at 28° C. (water quality: 200 mg of instant sea salt in each 1L of reverse osmosis water, with the conductivity of 450-550 μS/cm; pH of 6.5-8.5; and hardness of 50-100 mg/L CaCO3), the experimental animal use license number is: SYXK (Zhe) 2012-0171, and the breeding management met the requirements of the international AAALAC certification (certification number: 001458).
(1) Grouping: Polypeptide group: prepared into a stock solution of 20.0 mg/mL with ultrapure water and stored at −20° C.
Positive control group: prednisone, as white powder, with batch number C10016501, Shanghai Macklin Biochemical Technology Co., Ltd., stored at 4° C.; prepared into a 15.0 mg/mL stock solution with DMSO, and stored in aliquots at −20° C.
Normal control group and model control group.
(2) Experimental method: 3 dpf wild-type AB strain zebrafishes were randomly selected and placed in a 6-well plate, with 30 zebrafishes in each well (experimental group). Except for the normal control group, all other experimental groups were given TNBS in water to establish the zebrafish model of intestinal mucosal injury. After 2 days of treatment at 28° C., TNBS was removed, and polypeptide compound in water (at concentrations shown in Table 4) was given respectively, and for the positive control, prednisone was 15.0 μg/mL. A normal control group (healthy group) and a model control group (intestinal mucosal injury group) were set up at the same time. The capacity of each well (experimental group) was 3 mL. After 2 days of treatment at 28° C., 10 zebrafishes were randomly selected from each experimental group and photographed under a dissecting microscope. NIS-Elements D 3.20 advanced image processing software was used to analyze and collect data, and the intestinal lumen area of the zebrafish was analyzed. The statistical analysis results of this indicator were used to evaluate the efficacy of the samples in relieving colitis. The statistics results were expressed as mean±SE. SPSS26.0 software was used for statistical analysis, and p<0.05 indicates statistically significant difference.
The concentration gradient of the test substances set in this experimental system was 250 μg/mL, 500 μg/mL, and 1000 μg/mL. […] When the concentration of the test substance was further increased for intervention, the death phenomenon of zebrafishes was found in the group; therefore, in the subsequent rounds of activity evaluation, each test polypeptide compound was uniformly administered at 1000 μg/mL for intervention.
In the case of `C[C@]12C=CC(=O)C=C1CC[C@@H]1[C@@H]2C(=O)C[C@@]2(C)[C@H]1CC[C@]2(O)C(=O)CO` [Prednisone, prednisone, reference compound], the “Intestinal lumen area (pixels, mean ± SE)” value was 34929 ± 1913 pixels.

Staying with this test, now noted: 250 μg/mL in water, 2 days after TNBS, n = 10.
For the compound PRKVAAQ [Compound 5], the “Intestinal lumen area (pixels, mean ± SE)” value is listed as 42960 ± 2661 pixels.

For the compound KEPVPQAK [Compound 4], the “Intestinal lumen area (pixels, mean ± SE)” value worked out at 48915 ± 2720 pixels.

The test is the same for the next values; noted with them: 500 μg/mL in water, 2 days after TNBS, n = 10.
On to PRKVAAQ [Compound 5], for which the “Intestinal lumen area (pixels, mean ± SE)” value is reported as 45713 ± 4481 pixels.

On to KEPVPQAK [Compound 4], for which the “Intestinal lumen area (pixels, mean ± SE)” value worked out at 40432 ± 3736 pixels.

The test is the same for the next values; noted with them: 1000 μg/mL in water, 2 days after TNBS, n = 10.
For PRKVAAQ [Compound 5], the “Intestinal lumen area (pixels, mean ± SE)” value was determined as 33977 ± 3524 pixels.

Take KEPVPQAK [Compound 4]: the “Intestinal lumen area (pixels, mean ± SE)” value is 33664 ± 3758 pixels.

The test is the same for the next values; noted with them: 1000 μg/mL; significance vs model control group of the same batch.
KEPIPQAKPRKVAAQ [Compound 106]: the “Activity in relieving intestinal lumen dilatation” value (“Activity” below) was “** (** p < 0.01)”.

With GPETAFLRKEPVPQAKPRKVAAQ [Compound 95], the “Activity” value was “** (** p < 0.01)”.

In the case of “Lys-Val-Ala-Ala (KVAA; printed: Lys-Val-Ala-Ala) [Compound 16]”, the “Activity” value is reported as “+”.

Turning to DPVPQAK [Compound 49], the “Activity” value is on record as “* (* p < 0.05)”.

In the case of PRKVAAQ [Compound 5], the “Activity” value is “* (* p < 0.05)”.

On to KEPVPQAKPRKVAAA [Compound 30], for which the “Activity” value is “+”.

In the case of EPVGQAK [Compound 77], the “Activity” value is reported as “−”.

Take “Val-Ala-Ala-Gln (VAAQ; printed: Val-Ala-Ala-Gln) [Compound 8]”: the “Activity” value was “+”.

KEPVPQAKP[dR]KVAAQ [Compound 70]: the “Activity” value is given as “* (* p < 0.05)”.

Regarding “Val-Pro-Gln-Ala (VPQA; printed: Val-Pro-Gln-Ala) [Compound 13]”, the “Activity” value was “−”.

For the compound SSEDIKEKEPVPQAKPRKVAAQ [Compound 97], the “Activity” value is listed as “*** (*** p < 0.001)”.

Consider KEPVPQAKPRKVAAN [Compound 104], for which the “Activity” value was “*** (*** p < 0.001)”.

Turning to EPVPQA[dK] [Compound 84], the “Activity” value is on record as “+”.

As for RKDVYKEPVPQAKPRKVAAQ [Compound 91], the “Activity” value is listed as “+”.

Turning to EPVPQAA [Compound 48], the “Activity” value is “** (** p < 0.01)”.

With “Gln-Ala-Lys-Pro (QAKP; printed: Gln-Ala-Lys-Pro) [Compound 17]”, the “Activity” value was “+”.

Take KEGVGQAKGRKVAAQ [Compound 35]: the “Activity” value was “−”.

Regarding “Pro-Val-Pro-Ala (PVPA; printed: Pro-Val-Pro-Ala) [Compound 42]”, the “Activity” value is listed as “+”.

As for KEPVPQAK [Compound 4], the “Activity” value is “* (* p < 0.05)”.

In the case of EPVPQAKPRK [Compound 38], the “Activity” value is on record as “* (* p < 0.05)”.

On to KE[dP]VPQAKPRKVAAQ [Compound 63], for which the “Activity” value was “*** (*** p < 0.001)”.

On to EPVPQ[dA]K [Compound 83], for which the “Activity” value was “* (* p < 0.05)”.

As to AEPVPQAKPRKVAAQ [Compound 19], the “Activity” value was “+”.

Consider “Lys-Glu-Pro-Val (KEPV; printed: Lys-Glu-Pro-Val) [Compound 7]”, for which the “Activity” value is given as “+”.

For RKDVYEPVPQAK [Compound 93], the “Activity” value is “* (* p < 0.05)”.

Regarding KEPVPQAKPRKVA[dA]Q [Compound 74], the “Activity” value was “+”.

Consider PVPQAK [Compound 44], for which the “Activity” value is recorded as “−”.

As for KEPVGQAKGRKVAAQ [Compound 34], the “Activity” value was “* (* p < 0.05)”.

As to KEPV[dP]QAKPRKVAAQ [Compound 65], the “Activity” value is “* (* p < 0.05)”.

On to SSEDIKEPVPQ [Compound 99], for which the “Activity” value is recorded as “* (* p < 0.05)”.

In the case of KEPVPQAKARKVAAQ [Compound 26], the “Activity” value was “* (* p < 0.05)”.

With EPVP[dQ]AK [Compound 82], the “Activity” value is given as “+”.

On to KAPVPQAKPRKVAAQ [Compound 20], for which the “Activity” value is recorded as “&”.

Consider EP[dV]PQAK [Compound 80], for which the “Activity” value is reported as “+”.

Take KEP[dV]PQAKPRKVAAQ [Compound 64]: the “Activity” value was “+”.

Regarding “Pro-Arg-Lys-Val (PRKV; printed: Pro-Arg-Lys-Val) [Compound 18]”, the “Activity” value is “−”.

For SSEDIKEEPVPQAK [Compound 98], the “Activity” value is “** (** p < 0.01)”.

As for EGVPQAK [Compound 76], the “Activity” value is “+”.

Take EPAPQAK [Compound 52]: the “Activity” value is on record as “+”.

Consider KEPVPQ [Compound 87], for which the “Activity” value is recorded as “+”.

With “Pro-Val-Pro-Ile-Ala (PVPIA; printed: Pro-Val-Pro-Ile-Ala) [Compound 41]”, the “Activity” value was “+”.

On to NPVPQAK [Compound 50], for which the “Activity” value was “* (* p < 0.05)”.

Turning to KEPVPQAKPRKAAAQ [Compound 29], the “Activity” value is recorded as “* (* p < 0.05)”.

As to “Lys-Glu-Pro-Val-Pro (KEPVP; printed: Lys-Glu-Pro-Val-Pro) [Compound 85]”, the “Activity” value is listed as “* (* p < 0.05)”.

For the compound KEPVPQA[dK]PRKVAAQ [Compound 68], the “Activity” value is given as “** (** p < 0.01)”.

Regarding KEPVPQAK[dP]RKVAAQ [Compound 69], the “Activity” value was “+”.

Regarding “Glu-Pro-Val-Pro-Gln (EPVPQ; printed: Glu-Pro-Val-Pro-Gln) [Compound 86]”, the “Activity” value is on record as “* (* p < 0.05)”.

KEPVPQAKPRKVAA[dQ] [Compound 75]: the “Activity” value was “* (* p < 0.05)”.

In the case of KEPVPQAKPRAVAAQ [Compound 28], the “Activity” value is “+”.

As to KEPVPQAAPRKVAAQ [Compound 24], the “Activity” value was “+”.

Take EPVPQAKP [Compound 58]: the “Activity” value is listed as “+”.

For EPVPEAK [Compound 55], the “Activity” value is given as “* (* p < 0.05)”.

Turning to “Pro-Val-Pro-Gln-Ala (PVPQA; printed: Pro-Val-Pro-Gln-Ala) [Compound 39]”, the “Activity” value was “+”.

Take KEPVPQAKPRKVAAE [Compound 103]: the “Activity” value is “* (* p < 0.05)”.

Consider KEPVPQAKPAKVAAQ [Compound 27], for which the “Activity” value is reported as “+”.

KEPVPAAKPRKVAAQ [Compound 23]: the “Activity” value is “+”.

In the case of KEPVP[dQ]AKPRKVAAQ [Compound 66], the “Activity” value is reported as “* (* p < 0.05)”.

On to “Lys-Pro-Arg-Lys (KPRK; printed: Lys-Pro-Arg-Lys) [Compound 10]”, for which the “Activity” value is “** (** p < 0.01)”.

With RKDVYPVPQ [Compound 94], the “Activity” value is “*** (*** p < 0.001)”.

Still in this test, the particulars now being: 250, 500, 1000 μg/mL; Table 4.
PRKVAAQ [Compound 5]: the “Intestinal lumen area compared with the model control group (in words)” value was “significant statistical differences compared with the model control group”.

On to KEPVPQAK [Compound 4], for which the “Intestinal lumen area compared with the model control group (in words)” value is listed as “significant statistical differences compared with the model control group”.
